# Measured values taken from US10544154B2, “Opioid receptor antagonist prodrugs” (Nirsum Laboratories, Inc., priority 2017, dated 2020).
# Assay: Clinical observations for dogs in pharmacokinetic studies
# Format: in vivo, Beagle dogs
# Protocol: Weight monitoring was done every week.
# The dose formulation (concentration—400 mg base equivalents/ml in sesame oil+1% benzyl alcohol, unless otherwise specified) was administered via deep intramuscularly (unless otherwise specified). The injection vehicle was also dosed via deep intramuscular route (unless otherwise specified) on contralateral site of each animal at study initiation. The animals were sedated with Propofol at 6 mg/kg via IV administration. Following sedation hair was carefully removed from around the injection site and the area gently cleaned. Care will be taken to avoid irritating skin during shaving and cleaning the injection site. Then dogs will be dosed with deep IM administration. At least 2.5 cm depth from the surface into the central aspect of the quadriceps or biceps femoris muscle, by angling the needle toward the femur. If the needle hits the femur, simply draws back slightly and then inject. The dose volume will be determined by the animals' body weight collected on the morning of dosing day. For repeated administration, the injection sites may be rotated to minimize tissue injury.
compound,measurement,setting,value
"C=C1CC[C@@]2(O)C3Cc4ccc(OCOC(=O)CCCCCCCCCCCCC)c5c4[C@@]2(CCN3CC2CC2)[C@H]1O5 [Compound 45, (((4aS,7aS,12bS)-3-(cyclopropylmethyl)-4a-hydroxy-7-methylene-2,3,4,4a,5,6,7,7a-octahydro-1H-4,12-methanobenzofuro[3,2-e]isoquinolin-9-yl)oxy)methyl tetradecanoate]",Clinical observations (cell spans L-vehicle and R-TA),"dog D1503, 96 mg/kg, Day 1",Liquid feces about 20 mL
"C=C1CC[C@@]2(O)C3Cc4ccc(OC(=O)OCCCCCCCCCCC)c5c4[C@@]2(CCN3CC2CC2)[C@H]1O5 [Compound 3, (4aS,7aS,12bS)-3-(cyclopropylmethyl)-4a-hydroxy-7-methylene-2,3,4,4a,5,6,7,7a-octahydro-1H-4,12-methanobenzofuro[3,2-e]isoquinolin-9-yl undecyl carbonate]",BT,"48 mg/kg, dog D1001, Day 1",cm/BT: 39.2° C./
same,BT,"48 mg/kg, dog D1001, Day 2",38.9 °C
same,BT,"48 mg/kg, dog D1001, Day 3",39.1 °C
same,BT,"48 mg/kg, dog D1001, Day 4",38.5 °C
same,BT,"48 mg/kg, dog D1001, Day 5",38.6 °C
same,BT,"48 mg/kg, dog D1001, Day 6",38.4 °C
same,BT,"48 mg/kg, dog D1001, Day 7",38.4 °C
same,BT,"48 mg/kg, dog D1001, Day 8",38.7 °C
same,BT,"48 mg/kg, dog D1001, Day 9",38.7 °C
same,BT,"48 mg/kg, dog D1001, Day 10",38.4 °C
same,BT,"48 mg/kg, dog D1001, Day 11",38.8 °C
same,BT,"48 mg/kg, dog D1001, Day 12",38.0 °C
same,BT,"48 mg/kg, dog D1001, Day 13",38.4 °C
same,BT,"48 mg/kg, dog D1001, Day 15",37.8 °C
same,BT,"48 mg/kg, dog D1001, Day 17",BT: 38.3 °C
same,BT,"48 mg/kg, dog D1001, Day 18",BT: 38.4 °C
same,BT,"48 mg/kg, dog D1001, Day 19",BT: 38.3 °C
same,BT,"48 mg/kg, dog D1001, Day 20",BT: 37.9 °C
same,BT,"48 mg/kg, dog D1001, Day 21",BT: 38.6 °C
same,BT,"48 mg/kg, dog D1001, Day 22",BT: 38.8 °C
same,BT,"48 mg/kg, dog D1001, Day 23",BT: 38.3 °C
same,BT,"48 mg/kg, dog D1001, Day 24",BT: 38.5 °C
same,BT,"48 mg/kg, dog D1001, Day 25",BT: 38.4 °C
same,BT,"48 mg/kg, dog D1001, Day 26",BT: 38.2 °C
same,BT,"48 mg/kg, dog D1001, Day 27",BT: 38.4 °C
same,BT,"48 mg/kg, dog D1002, Day 1",39.1 °C
same,BT,"48 mg/kg, dog D1002, Day 2",39.3 °C
same,BT,"48 mg/kg, dog D1002, Day 3",39.3 °C
same,BT,"48 mg/kg, dog D1002, Day 4",38.5 °C
same,BT,"48 mg/kg, dog D1002, Day 5",38.7 °C
same,BT,"48 mg/kg, dog D1002, Day 6",38.8 °C
same,BT,"48 mg/kg, dog D1002, Day 7",38.6 °C
same,BT,"48 mg/kg, dog D1002, Day 8",38.7 °C
same,BT,"48 mg/kg, dog D1002, Day 9",38.3 °C
same,BT,"48 mg/kg, dog D1002, Day 10",calf/BT: 38.3 °C
same,BT,"48 mg/kg, dog D1002, Day 11",38.9 °C
same,BT,"48 mg/kg, dog D1002, Day 12",38.5 °C
same,BT,"48 mg/kg, dog D1002, Day 13",38.8 °C
same,BT,"48 mg/kg, dog D1002, Day 14",38.3 °C
same,BT,"48 mg/kg, dog D1002, Day 15",37.8 °C
same,BT,"48 mg/kg, dog D1002, Day 17",38.7 °C
same,BT,"48 mg/kg, dog D1002, Day 18",38.8 °C
same,BT,"48 mg/kg, dog D1002, Day 19",38.7 °C
same,BT,"48 mg/kg, dog D1002, Day 20",38.6 °C
same,BT,"48 mg/kg, dog D1002, Day 21",BT: 38.5 °C
same,BT,"48 mg/kg, dog D1002, Day 22",BT: 39.3 °C
same,BT,"48 mg/kg, dog D1002, Day 23",BT: 38.8 °C
same,BT,"48 mg/kg, dog D1002, Day 24",BT: 39.1 °C
same,BT,"48 mg/kg, dog D1002, Day 25",BT: 38.6 °C
same,BT,"48 mg/kg, dog D1002, Day 26",BT: 38.6 °C
same,BT,"48 mg/kg, dog D1002, Day 27",cm/BT: 38.6 °C
same,"Clinical observation, R-TA","48 mg/kg, dog D1003, 8 hr",Swelling 4 * 3
same,BT,"48 mg/kg, dog D1003, Day 1",side/BT: 39.6 °C
same,BT,"48 mg/kg, dog D1003, Day 2",side/BT: 39.7 °C
same,BT,"48 mg/kg, dog D1003, Day 3",39.2 °C
same,BT,"48 mg/kg, dog D1003, Day 4",site/BT: 38.7 °C
same,BT,"48 mg/kg, dog D1003, Day 5",39.0 °C
same,BT,"48 mg/kg, dog D1003, Day 6",39.2 °C
same,BT,"48 mg/kg, dog D1003, Day 7",39.5 °C
same,BT,"48 mg/kg, dog D1003, Day 8",39.4 °C
same,BT,"48 mg/kg, dog D1003, Day 9",38.8 °C
same,BT,"48 mg/kg, dog D1003, Day 10",38.9 °C
same,BT,"48 mg/kg, dog D1003, Day 11",swelling/BT: 39.4 °C
same,BT,"48 mg/kg, dog D1003, Day 12",swelling/BT: 39.3 °C
same,BT,"48 mg/kg, dog D1003, Day 13",swelling/BT: 39.9 °C
same,BT,"48 mg/kg, dog D1003, Day 15",swelling/BT: 39.4 °C
same,BT,"48 mg/kg, dog D1003, Day 17",swelling/BT: 39.5 °C
same,BT,"48 mg/kg, dog D1003, Day 18",swelling/BT: 39.5 °C
same,BT,"48 mg/kg, dog D1003, Day 19",swelling/BT: 39.4 °C
same,BT,"48 mg/kg, dog D1003, Day 21",swelling/BT: 39.3 °C
same,BT,"48 mg/kg, dog D1003, Day 22",swelling/BT: 39.9 °C
same,BT,"48 mg/kg, dog D1003, Day 24",BT: 39.5 °C
same,BT,"48 mg/kg, dog D1003, Day 25",BT: 39.8 °C
same,BT,"48 mg/kg, dog D1003, Day 26",BT: 39.3 °C
same,BT,"48 mg/kg, dog D1003, Day 27",BT: 38.9 °C
